Tests used:
[1] = in vitro; details: human
Description: Metabolic stability assay
Hepatic microsomal stability assays were conducted by Charles River Laboratories. Assays were performed in duplicate.
The stability of the test compound (1 µM) was measured following incubation at 37 °C with […] (0.5 mg protein/mL) in the presence of the cofactor, NADPH.
Incubates were prepared in duplicate, with aliquots removed at 0, 5, 10, 20 and 40 minutes and reactions terminated, and the compound was extracted by the addition of solvent. The disappearance of the parent compound was be monitored by LC-MS/MS and the half-life determined over the time-course of incubation. The half-life value was used to calculate the in vitro intrinsic clearance expressed as µL/min/mg protein.
Table S11. Metabolic Stability Data
Half- Half- Half- Clint Clint Mean Clint
Compound Cofactor life life Life (uL/min/mg (uL/min/mg (uL/min/mg Species (min) (min) (min) protn) n=1 protn) n=2 protn) (results)

[2] = test system: T cell proliferation; details: Fig. 1a; cited from earlier work
Description: Fig. 1 Evolution of a strategy for one-carbon alkene homologation. a, The effect of homologues on biological activity: side chain length compared with immunosuppressive activity in a family of natural products. b, Homologation processes for common functional groups. c, Generally adopted sequence for alkene homologation. d, Design plan for a catalytic one-carbon alkene homologation process. TEXT PRINTED IN THE PICTURE: (a) R = CH3 FK-523 (FR-900523): T cell proliferation IC50 (nM): 2.72 | (a) R = CH2CH3 FK-520 (ascomycin): T cell proliferation IC50 (nM): 0.69 | (a) R = CH2CH2CH3: T cell prolife ...

[3] = biological target: Human Cyclophilin A (Homo sapiens, UniProt P62937); assay: PPIase TR-FRET competitive binding assay
Chain of Human Cyclophilin A (P62937 whole entry): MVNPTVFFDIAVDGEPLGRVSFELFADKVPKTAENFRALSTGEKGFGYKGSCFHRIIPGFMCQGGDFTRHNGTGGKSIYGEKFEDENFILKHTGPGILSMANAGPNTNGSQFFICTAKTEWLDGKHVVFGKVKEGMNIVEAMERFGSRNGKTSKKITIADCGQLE
Description: PPIase TR-FRET competitive binding assay
Cyclophilin A assays were conducted by Eurofins Integrated Discovery UK Ltd (EID) to determine the inhibitory activity of the analogues against the Human Cyclophilin A in a TR-FRET Competitive Binding assay. Assays were performed in duplicate, with Kd values calculated from mean averages. […]
binding to the CypA enzyme: the CypA enzyme, tagged with a polyhistidine sequence, forms a complex with an anti-6xHis antibody labelled with a fluorescent donor, F(d), and the enzyme […]
Compounds are diluted from DMSO stocks to 50-fold the final concentration and then in assay buffer to 2-fold the final assay plate concentration. An equal volume of compound is added to the master mix in the assay plate containing the enzyme/antibody/ligand complex, with a final concentration of detergent of 0.01%. This is incubated for 30 mins at room temperature and the plate read at 2 wavelengths (A and B) to detect emission from F(d) and F(a), respectively. The ratio B/A is calculated, blank subtracted and either expressed as a percentage of the ‘no inhibitor’ control or the blank subtracted values are plotted against the inhibitor concentration in Log10 Molar and fitted using one site Ki nonlinear regression to determine the Kd. Where possible, compound Kds are determined from duplicate data points. Each assay plate is set up with ‘no enzyme’ blanks and ‘no inhibitor’ controls, which are used to determine the Z’ value for each plate.

[4] = test system: calcineurin in the presence of Cyclophilin A; assay: Calcineurin inhibition assay (phosphatase activity in the presence of Cyclophilin A); assay type: biochemical; details: in vitro calcineurin phosphatase activity assay
Description: Calcineurin inhibition assay
Calcineurin inhibition assays were conducted by Eurofins Integrated Discovery UK Ltd (EID) to determine the effect of compounds on the activity of calcineurin in the presence of Cyclophilin A. Assays were performed in duplicate, with IC50 values calculated from mean […]
Compounds were diluted with and without immunophilin (CypA) in a 96-well plate. After addition of calcineurin/calmodulin complex, the plate was incubated at 30 °C for 10 minutes.
The addition of the RII phosphopeptide substrate initiated the reaction, and the plate was […]
The reaction was stopped by the addition of Malachite green reagent. The plate was incubated at room temperature to allow colour development (5 – 20 mins). After sufficient colour has developed, the absorbance is read at 620 nm. Blank subtracted absorbance readings are plotted against compound concentration to determine IC50 values or % inhibition at the top concentration.

SMILES | Clint (uL/min/mg protn) n=1 [1] | Clint (uL/min/mg protn) n=2 [1] | Half-life (min) n=1 [1] [min] | Half-life (min) n=2 [1] [min] | Mean Clint (uL/min/mg protn) [1] | IC50 [2] [nM] | other results
COc1ccc2c(c1)[C@]13CCCC[C@@H]1[C@H](C2)N(C)CC3 [Dextromethorphan, reference compound] | 29 | 29 | 49 | 47 | 29 |  | Half-Life (min) (Mean) [1]: 48 min
CC[C@@H]1/C=C(\C)C[C@H](C)C[C@H](OC)[C@H]2O[C@@](O)(C(=O)C(=O)N3CCCC[C@H]3C(=O)O[C@H](/C(C)=C/[C@@H]3CC[C@@H](O)[C@H](OC)C3)[C@H](C)[C@@H](O)CC1=O)[C@H](C)C[C@@H]2OC [FK-520, ascomycin] |  |  |  |  |  | 0.69 | 
CO[C@H]1C[C@@H](C)C/C(C)=C\[C@@H](C)C(=O)C[C@H](O)[C@@H](C)[C@@H](/C(C)=C/[C@@H]2CC[C@@H](O)[C@H](OC)C2)OC(=O)[C@@H]2CCCCN2C(=O)C(=O)[C@]2(O)O[C@H]1[C@@H](OC)C[C@H]2C [FK-523] |  |  |  |  |  | 2.72 | 
Cc1ncc2n1-c1ccc(Cl)cc1C(c1ccccc1F)=NC2 [Midazolam, reference compound] | 277 | 277 | 5 | 5 | 277 |  | Half-Life (min) (Mean) [1]: 5 min
CCCC1C=C(C)CC(C)CC(OC)C2OC(O)(C(=O)C(=O)N3CCCCC3C(=O)OC(C(C)=CC3CCC(O)C(OC)C3)C(C)C(O)CC1=O)C(C)CC2OC (stereo not shown) [R = CH2CH2CH3] |  |  |  |  |  | 0.93 | 
C=CC[C@@H]1/C=C(\C)C[C@H](C)C[C@H](OC)[C@H]2O[C@@](O)(C(=O)C(=O)N3CCCC[C@H]3C(=O)O[C@H](/C(C)=C/[C@@H]3CC[C@@H](O)[C@H](OC)C3)[C@H](C)[C@@H](O)CC1=O)[C@H](C)C[C@@H]2OC [Tacrolimus, tacrolimus] |  |  |  |  |  | 0.18 | 
[2H]C([2H])([2H])/C=C/CC[C@@H](C)[C@@H](O)[C@H]1C(=O)N[C@@H](CC)C(=O)N(C)CC(=O)N(C)[C@@H](CC(C)C)C(=O)N[C@@H](C(C)C)C(=O)N(C)[C@@H](CC(C)C)C(=O)N[C@@H](C)C(=O)N[C@H](C)C(=O)N(C)[C@@H](CC(C)C)C(=O)N(C)[C@@H](CC(C)C)C(=O)N(C)[C@@H](C(C)C)C(=O)N1C [compound 23] | 44 uL/min/mg protn | 45 uL/min/mg protn | 32 | 31 | 44 uL/min/mg protn |  | Kd [3]: 45.9 nM; half-life at 1 µM ([1]; both, liver microsomes): 31 min
CC[C@@H]1NC(=O)[C@H]([C@H](O)[C@H](C)CC/C=C\F)N(C)C(=O)[C@H](C(C)C)N(C)C(=O)[C@H](CC(C)C)N(C)C(=O)[C@H](CC(C)C)N(C)C(=O)[C@@H](C)NC(=O)[C@H](C)NC(=O)[C@H](CC(C)C)N(C)C(=O)[C@H](C(C)C)NC(=O)[C@H](CC(C)C)N(C)C(=O)CN(C)C1=O [compound 24] | 48 uL/min/mg protn | 53 uL/min/mg protn | 29 | 26 | 51 uL/min/mg protn |  | decrease in phosphatase activity compared with cyclosporine A [4]: 10 fold
C=CCCC[C@@H](C)[C@@H](O)[C@H]1C(=O)N[C@@H](CC)C(=O)N(C)CC(=O)N(C)[C@@H](CC(C)C)C(=O)N[C@@H](C(C)C)C(=O)N(C)[C@@H](CC(C)C)C(=O)N[C@@H](C)C(=O)N[C@H](C)C(=O)N(C)[C@@H](CC(C)C)C(=O)N(C)[C@@H](CC(C)C)C(=O)N(C)[C@@H](C(C)C)C(=O)N1C [compound 26, homoisocyclosporine A] | 69 uL/min/mg protn | 65 uL/min/mg protn |  |  | 67 uL/min/mg protn |  | calcineurin inhibition compared with cyclosporine A (in words) [4]: restored calcineurin inhibition to levels comparable with those of cyclosporine A; Kd [3]: 10.2 nM

Reference: paper PMC12221989, “One-carbon homologation of alkenes” (Nature, 2025)
